Data on 31 molecules can be found in patent US20090247559A1 (Exelixis, Inc., priority 2007, published 2009).

SMILES strings stand for the structures. A value given as a limit tells only on which side of the number the result lay.

One assay concerns the target CK2 (Homo sapiens, UniProt P68400). Put plainly: CK2 inhibition, biochemical chemiluminescence holoenzyme assay (Kinase Glo, IC50 determination). To be noted: Table 1 activity class; symbol given only if active; read-out: CK2 IC50 (Activity C). The essentials:
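Holoenzyme CK2 assay; compounds pre-incubated with substrate and enzyme, then reacted 150 min at 24-27° C. Remaining ATP measured as luminescence with Kinase Glo, and IC50 derived from the signal.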

Assay [1] deals with PIM (PIM-1, PIM-2, and/or PIM-3). The assay is described as follows: PIM-1, PIM-2 and PIM-3 inhibition, biochemical chemiluminescence assays (Kinase Glo, IC50 determination). The settings on record: Table 1 activity class; PIM refers to PIM-1, PIM-2, and/or PIM-3; read-out: PIM IC50 (Activity B).

Chain of CK2 (P68400 whole entry): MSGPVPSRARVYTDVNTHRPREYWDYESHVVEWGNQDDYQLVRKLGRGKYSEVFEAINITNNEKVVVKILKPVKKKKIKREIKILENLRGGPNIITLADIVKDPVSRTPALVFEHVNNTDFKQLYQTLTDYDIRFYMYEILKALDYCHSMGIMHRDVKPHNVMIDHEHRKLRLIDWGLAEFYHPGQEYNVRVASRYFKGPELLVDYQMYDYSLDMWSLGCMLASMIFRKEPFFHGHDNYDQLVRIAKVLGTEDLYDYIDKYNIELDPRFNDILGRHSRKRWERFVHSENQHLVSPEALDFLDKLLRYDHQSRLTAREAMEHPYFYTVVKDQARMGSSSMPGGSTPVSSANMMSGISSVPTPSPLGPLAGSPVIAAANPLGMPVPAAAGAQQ
Chain of CK2 (P67870 whole entry partner): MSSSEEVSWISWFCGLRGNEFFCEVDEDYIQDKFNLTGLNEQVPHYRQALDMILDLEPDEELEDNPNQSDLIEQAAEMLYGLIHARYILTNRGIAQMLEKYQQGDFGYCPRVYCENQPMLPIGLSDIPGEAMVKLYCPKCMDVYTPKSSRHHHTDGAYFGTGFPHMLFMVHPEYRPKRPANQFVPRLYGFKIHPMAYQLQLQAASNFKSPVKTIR

In the case of `O=c1[nH]c(CN2CCC(c3ccccc3)CC2)nc2c1oc1ccc(Br)cc12` [Compound 238, 8-bromo-2-[(4-phenylpiperidin-1-yl)methyl][1]benzofuro[3,2-d]pyrimidin-4(3H)-one], the IC50 (at CK2; in assay [1]) was less than 10 µM each time.
For the molecule `O=c1[nH]c(CNCc2ccccc2)nc2c1oc1ccc(Br)cc12` [Compound 239, 8-bromo-2-{[(phenylmethyl)amino]methyl}[1]benzofuro[3,2-d]pyrimidin-4(3H)-one], the IC50 (on CK2; in assay [1]) was less than 10 µM throughout.
Consider `O=c1[nH]c(CN2CCN(c3cccnc3)CC2)nc2c1oc1ccc(Br)cc12` [Compound 240, 8-bromo-2-[(4-pyridin-3-ylpiperazin-1-yl)methyl][1]benzofuro[3,2-d]pyrimidin-4(3H)-one], for which the IC50 (on CK2; in assay [1]) was less than 10 µM throughout.
On to `O=c1[nH]c(CNC2CCc3ccccc32)nc2c1oc1ccc(Br)cc12` (centres unmarked) [Compound 241, 8-bromo-2-[(2,3-dihydro-1H-inden-1-ylamino)methyl][1]benzofuro[3,2-d]pyrimidin-4(3H)-one], for which the 50% inhibitory concentration (IC50) (on CK2; in assay [1]) was less than 10 µM in each case.
Consider `Nc1ncc(Cl)c(-c2nc3c(oc4ccc(Br)cc43)c(=O)[nH]2)n1` [Compound 243, 2-(2-amino-5-chloropyrimidin-4-yl)-8-bromo[1]benzofuro[3,2-d]pyrimidin-4(3H)-one], for which the IC50 (on CK2; in assay [1]) was less than 10 µM each time.
For `CN1CCC(Cc2nc3c(oc4ccc(Br)cc43)c(=O)[nH]2)CC1` [Compound 244, 8-bromo-2-[(1-methylpiperidin-4-yl)methyl][1]benzofuro[3,2-d]pyrimidin-4(3H)-one], the IC50 (on CK2; in assay [1]) was less than 10 µM throughout.
On to `CCN(CC)CC(=O)N1CCN(c2nc3c(oc4ccc(Br)cc43)c(=O)[nH]2)CC1` [Compound 245, 8-bromo-2-[4-(N,N-diethylglycyl)piperazin-1-yl][1]benzofuro[3,2-d]pyrimidin-4(3H)-one], for which the IC50 (on CK2; in assay [1]) was less than 10 µM each time.
For `CN(C)CCCN1CCN(c2nc3c(oc4ccc(Br)cc43)c(=O)[nH]2)CC1` [Compound 246, 8-bromo-2-{4-[3-(dimethylamino)propyl]piperazin-1-yl}[1]benzofuro[3,2-d]pyrimidin-4(3H)-one], the IC50 (at CK2; in assay [1]) was less than 10 µM each time.
For the molecule `O=c1[nH]c(CN2CCN(CCO)CC2)nc2c1oc1ccc(Br)cc12` [Compound 247, 8-bromo-2-{[4-(2-hydroxyethyl)piperazin-1-yl]methyl}[1]benzofuro[3,2-d]pyrimidin-4(3H)-one], the 50% inhibitory concentration (IC50) (at CK2; in assay [1]) was less than 10 µM throughout.
For the molecule `O=C(Nc1ccc(-c2nc3c(oc4ccc(Br)cc43)c(=O)[nH]2)c(Cl)c1)c1ccccc1` [Compound 249, N-[4-(8-bromo-4-oxo-3,4-dihydro[1]benzofuro[3,2-d]pyrimidin-2-yl)-3-chlorophenyl]benzamide], the IC50 (on CK2; in assay [1]) was less than 10 µM in each case.
On to `O=C(Nc1ccc(-c2nc3c(oc4ccc(Br)cc43)c(=O)[nH]2)c(Cl)c1)C1CCCCC1` [Compound 250, N-[4-(8-bromo-4-oxo-3,4-dihydro[1]benzofuro[3,2-d]pyrimidin-2-yl)-3-chlorophenyl]cyclohexanecarboxamide], for which the IC50 (on CK2; in assay [1]) was less than 10 µM throughout.
`O=C(Nc1ccc(-c2nc3c(oc4ccc(Br)cc43)c(=O)[nH]2)c(Cl)c1)C1CCCC1` [Compound 251, N-[4-(8-bromo-4-oxo-3,4-dihydro[1]benzofuro[3,2-d]pyrimidin-2-yl)-3-chlorophenyl]cyclopentanecarboxamide]: the IC50 (at CK2; in assay [1]) was less than 10 µM throughout.
On to `O=c1[nH]c(CN2CCC(Cc3ccccc3)CC2)nc2c1oc1ccc(Br)cc12` [Compound 253, 8-bromo-2-{[4-(phenylmethyl)piperidin-1-yl]methyl}[1]benzofuro[3,2-d]pyrimidin-4(3H)-one], for which the IC50 (at CK2; in assay [1]) was less than 10 µM each time.
Turning to `O=c1[nH]c(CNCc2ccccn2)nc2c1oc1ccc(Br)cc12` [Compound 254, 8-bromo-2-{[(pyridin-2-ylmethyl)amino]methyl}[1]benzofuro[3,2-d]pyrimidin-4(3H)-one], the IC50 (on CK2; in assay [1]) was less than 10 µM each time.
`COc1cccc(CNCc2nc3c(oc4ccc(Br)cc43)c(=O)[nH]2)c1` [Compound 255, 8-bromo-2-[({[3-(methyloxy)phenyl]methyl}amino)methyl][1]benzofuro[3,2-d]pyrimidin-4(3H)-one]: the half-inhibitory concentration (IC50) (on CK2; in assay [1]) was less than 10 µM throughout.
On to `O=c1[nH]c(CNCc2cccc(Cl)c2)nc2c1oc1ccc(Br)cc12` [Compound 256, 8-bromo-2-({[(3-chlorophenyl)methyl]amino}methyl)[1]benzofuro[3,2-d]pyrimidin-4(3H)-one], for which the 50% inhibitory concentration (IC50) (at CK2; in assay [1]) was less than 10 µM each time.
`O=c1[nH]c(CN2CCC(N3CCOCC3)CC2)nc2c1oc1ccc(Br)cc12` [Compound 257, 8-bromo-2-[(4-morpholin-4-ylpiperidin-1-yl)methyl][1]benzofuro[3,2-d]pyrimidin-4(3H)-one]: the IC50 (at CK2; in assay [1]) was less than 10 µM throughout.
As for `O=c1[nH]c(CNCc2ccco2)nc2c1oc1ccc(Br)cc12` [Compound 258, 8-bromo-2-{[(furan-2-ylmethyl)amino]methyl}[1]benzofuro[3,2-d]pyrimidin-4(3H)-one], the IC50 (on CK2; in assay [1]) was less than 10 µM throughout.
As to `O=c1[nH]c(CN2CCN(c3ccccc3)CC2)nc2c1oc1ccc(Br)cc12` [Compound 260, 8-bromo-2-[(4-phenylpiperazin-1-yl)methyl][1]benzofuro[3,2-d]pyrimidin-4(3H)-one], the IC50 (at CK2; in assay [1]) was less than 10 µM each time.
As for `COc1ccc(CNCc2nc3c(oc4ccc(Br)cc43)c(=O)[nH]2)cc1` [Compound 261, 8-bromo-2-[({[4-(methyloxy)phenyl]methyl}amino)methyl][1]benzofuro[3,2-d]pyrimidin-4(3H)-one], the IC50 (at CK2; in assay [1]) was less than 10 µM in each case.
Take `O=c1[nH]c(CNC2Cc3ccccc3C2)nc2c1oc1ccc(Br)cc12` [Compound 263, 8-bromo-2-[(2,3-dihydro-1H-inden-2-ylamino)methyl][1]benzofuro[3,2-d]pyrimidin-4(3H)-one]: the IC50 (at CK2; in assay [1]) was less than 10 µM each time.
Take `O=C(C1CCN(Cc2nc3c(oc4ccc(Br)cc43)c(=O)[nH]2)C1)N1CCOCC1` (centres unmarked) [Compound 267, 8-bromo-2-{[3-(morpholin-4-ylcarbonyl)pyrrolidin-1-yl]methyl}[1]benzofuro[3,2-d]pyrimidin-4(3H)-one]: the IC50 (at CK2; in assay [1]) was less than 10 µM each time.
In the case of `COc1ccccc1CNCc1nc2c(oc3ccc(Br)cc32)c(=O)[nH]1` [Compound 268, 8-bromo-2-[({[2-(methyloxy)phenyl]methyl}amino)methyl][1]benzofuro[3,2-d]pyrimidin-4(3H)-one], the IC50 (on CK2; in assay [1]) was less than 10 µM throughout.
As to `O=C(NCc1ccc(Cl)cc1)C1CCN(Cc2nc3c(oc4ccc(Br)cc43)c(=O)[nH]2)C1` (centres unmarked) [Compound 271, 1-[(8-bromo-4-oxo-3,4-dihydro[1]benzofuro[3,2-d]pyrimidin-2-yl)methyl]-N-[(4-chlorophenyl)methyl]pyrrolidine-3-carboxamide], the IC50 (on CK2; in assay [1]) was less than 10 µM each time.
On to `O=C(C1CCN(Cc2nc3c(oc4ccc(Br)cc43)c(=O)[nH]2)C1)N1CCC(O)CC1` (centres unmarked) [Compound 272, 8-bromo-2-({3-[(4-hydroxypiperidin-1-yl)carbonyl]pyrrolidin-1-yl}methyl)[1]benzofuro[3,2-d]pyrimidin-4(3H)-one], for which the IC50 (at CK2; in assay [1]) was less than 10 µM each time.
As for `Cc1cc(C(=O)Nc2ccc(-c3nc4c(oc5ccc(Br)cc54)c(=O)[nH]3)c(Cl)c2)cc(Cl)n1` [Compound 274, N-[4-(8-bromo-4-oxo-3,4-dihydro[1]benzofuro[3,2-d]pyrimidin-2-yl)-3-chlorophenyl]-2-chloro-6-methylpyridine-4-carboxamide], the IC50 (at CK2; in assay [1]) was less than 10 µM in each case.
Turning to `O=C(Nc1ccc(-c2nc3c(oc4ccc(Br)cc43)c(=O)[nH]2)c(Cl)c1)c1ccc(Cl)cc1` [Compound 279, N-[4-(8-bromo-4-oxo-3,4-dihydro[1]benzofuro[3,2-d]pyrimidin-2-yl)-3-chlorophenyl]-4-chlorobenzamide], the IC50 (on CK2; in assay [1]) was less than 10 µM in each case.
With `O=C(Nc1ccc(-c2nc3c(oc4ccc(Br)cc43)c(=O)[nH]2)c(Cl)c1)c1cccc(Cl)c1` [Compound 280, N-[4-(8-bromo-4-oxo-3,4-dihydro[1]benzofuro[3,2-d]pyrimidin-2-yl)-3-chlorophenyl]-3-chlorobenzamide], the IC50 (at CK2; in assay [1]) was less than 10 µM in each case.
`COc1cccc(C(=O)Nc2ccc(-c3nc4c(oc5ccc(Br)cc54)c(=O)[nH]3)c(Cl)c2)c1` [Compound 281, N-[4-(8-bromo-4-oxo-3,4-dihydro[1]benzofuro[3,2-d]pyrimidin-2-yl)-3-chlorophenyl]-3-(methyloxy)benzamide]: the IC50 (at CK2; in assay [1]) was less than 10 µM each time.
Turning to `C[C@H](c1ccccc1)N1C[C@H](c2nc3c(oc4ccc(Br)cc43)c(=O)[nH]2)CC1=O` [Compound 282, 8-bromo-2-{(3R)-5-oxo-1-[(1R)-1-phenylethyl]pyrrolidin-3-yl}[1]benzofuro[3,2-d]pyrimidin-4(3H)-one], the IC50 (on CK2; in assay [1]) was less than 10 µM in each case.
On to `Nc1cc(C(=O)Nc2ccc(-c3nc4c(oc5ccc(Br)cc54)c(=O)[nH]3)c(Cl)c2)ccn1` [Compound 284, 2-amino-N-[4-(8-bromo-4-oxo-3,4-dihydro[1]benzofuro[3,2-d]pyrimidin-2-yl)-3-chlorophenyl]pyridine-4-carboxamide], for which the IC50 (at CK2; in assay [1]) was less than 10 µM in each case.
